The text below walks through data of ChEMBL document CHEMBL4177744, “Discovery of novel scaffolds for γ-secretase modulators without an arylimidazole moiety” (Bioorg Med Chem, 2018).

The target in data set [1] is T1, CYP3A4 (Homo sapiens, UniProt P08684). As to the kind of experiment: Inhibition of CYP3A4 in human liver microsomes assessed as residual activity at 5 uM using midazolam as substrate after 20 mins in presence of NADPH by LC-MS/MS analysis relative to control. The data set is classed as ADME. The conditions noted are these: probe midazolam, read-out: Activity.
T1 sequence (P08684 whole entry): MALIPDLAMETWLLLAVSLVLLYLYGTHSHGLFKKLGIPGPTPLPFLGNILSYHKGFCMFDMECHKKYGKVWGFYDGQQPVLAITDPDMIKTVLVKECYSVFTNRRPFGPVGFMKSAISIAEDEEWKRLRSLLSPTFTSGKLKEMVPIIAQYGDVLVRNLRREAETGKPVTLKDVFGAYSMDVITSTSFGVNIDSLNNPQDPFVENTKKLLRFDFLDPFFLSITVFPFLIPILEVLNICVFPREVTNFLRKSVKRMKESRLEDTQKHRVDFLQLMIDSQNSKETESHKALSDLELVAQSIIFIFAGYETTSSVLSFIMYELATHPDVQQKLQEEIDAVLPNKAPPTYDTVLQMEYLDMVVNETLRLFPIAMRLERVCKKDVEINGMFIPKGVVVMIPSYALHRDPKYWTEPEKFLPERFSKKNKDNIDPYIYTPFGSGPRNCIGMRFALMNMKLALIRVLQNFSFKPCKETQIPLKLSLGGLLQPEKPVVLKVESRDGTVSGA
Data set [2] has as its target T1, CYP3A4. The experiment in a line: Inhibition of CYP3A4 in human liver microsomes assessed as residual activity at 5 uM using midazolam as substrate preincubated for 30 mins followed by substrate addition measured after 20 mins in presence of NADPH by LC-MS/MS analysis relative to control. The data set is classed as ADME. The conditions noted are these: probe midazolam, read-out: Activity.

Data set [3] in a line: Intrinsic clearance in CD-1 mouse liver microsomes assessed per mg protein at 0.2 uM by LC-MS/MS analysis. The data set is classed as ADME, microsome. As to conditions: read-out: CLH.
Data set [4] addresses Gamma-secretase. As to the kind of experiment: Modulatory activity against gamma-secretase in human SK-N-BE(2) cells assessed as reduction in amyloid beta 42 production after 6 hrs by sandwich ELISA. The data set is classed as cell-based.
Data set [5] can be described thus: Drug uptake in ddY mouse plasma at 30 mg/kg, ip after 1 hr by LC-MS/MS analysis. The data set is classed as ADME, organism-based.
Data set [6] in a line: […], Kp in ddY mouse brain at 30 mg/kg, ip after 3 hrs by LC-MS/MS analysis. The data set is classed as ADME, organism-based. As to conditions: BLD = below limit of detection.
Data set [7] is described as follows: Drug uptake in ddY mouse brain at 30 mg/kg, ip after 1 hr by LC-MS/MS analysis. The data set is classed as ADME, organism-based. The conditions noted are these: in vivo.
Data set [8] can be described thus: Brain to plasma partition coefficient, Kp in ddY mouse at 30 mg/kg, ip after 1 hr by LC-MS/MS analysis. The data set is classed as ADME, organism-based.
Data set [9] can be described thus: Drug uptake in ddY mouse plasma at 30 mg/kg, ip after 3 hrs by LC-MS/MS analysis. The data set is classed as ADME, organism-based.
The nature of data set [10]: Brain to plasma partition coefficient, Kp in ddY mouse at 30 mg/kg, po after 1 hr by LC-MS/MS analysis. The data set is classed as ADME, organism-based.
Data set [11] is described as follows: Drug uptake in ddY mouse plasma at 30 mg/kg, po after 3 hrs by LC-MS/MS analysis. The data set is classed as ADME, organism-based.
A short description of data set [12]: Drug uptake in ddY mouse brain at 30 mg/kg, po after 1 hr by LC-MS/MS analysis. The data set is classed as ADME, organism-based. As to conditions: in vivo.
Data set [13] is described as follows: Brain to plasma partition coefficient, Kp in ddY mouse at 30 mg/kg, po after 3 hrs by LC-MS/MS analysis. The data set is classed as ADME, organism-based.
The nature of data set [14]: Drug uptake in ddY mouse brain at 30 mg/kg, po after 3 hrs by LC-MS/MS analysis. The data set is classed as ADME, organism-based. As to conditions: in vivo.
Data set [15] in a line: Drug uptake in ddY mouse plasma at 30 mg/kg, po after 1 hr by LC-MS/MS analysis. The data set is classed as ADME, organism-based.

`COc1cc(/C=C2\CCCN([C@@H](C)c3ccc(F)cc3)C2=O)ccc1-n1cnc(C)c1`: the activity at 20 min, 5 µM in [1] worked out at 40%; in [2] it was 29%.
For the compound `CCCCN1CCC(c2c(C)nc3c(OCc4ccccc4C)cccn23)CC1`, the microsomal CLint at 0.2 µM in [3] was above 1000 µL/min/mg. The IC50 in [4] worked out at 8.7 µM.
For `Cc1ccccc1COc1cccn2c(C3CCN(C)CC3)c(C)nc12`, the IC50 in data set [4] came to 9.8 µM.
Turning to `Cc1nc2c(OCc3ccccc3)cccn2c1CN(C)CCN(C)C`, the IC50 in data set [4] is above 50 µM.
On the same count and under the same terms, the value for `CCNC(=O)c1ccc(-c2c(C)nc3c(OCc4ccccc4C)cccn23)cc1` was 2.3 µM; that for `Cc1nc2c(OCc3ccccc3)cccn2c1C1CCN(C2CCCCC2)CC1` was 5.8 µM.
As for `CCCC(=O)N1CCC(c2c(C)nc3c(OCc4ccccc4C)cccn23)CC1.Cl`, the microsomal CLint at 0.2 µM in [3] was above 1000 µL/min/mg. In data set [5], this compound yielded a concentration at 1 h of 700 nM. Moreover, in data set [4], the IC50 was 0.69 µM. The Kp result in [6] is listed as “Bld”. The compound further displayed a Drug uptake in data set [7] of 0.71 nmol/g. Also, in data set [8], the Kp at 1 h was 1. Further, the concentration at 3 h in data set [9] turned out to be 9.4 nM.
Consider `CCCCc1ccc(-c2c(C)nc3c(OCc4ccccc4C)cccn23)cc1`, for which the microsomal CLint at 0.2 µM in data set [3] stood at 628 µL/min/mg. For the same compound, the IC50 in data set [4] is above 50 µM.
As to `CCOC(=O)c1ccc(-c2c(C)nc3c(OCc4ccccc4C)cccn23)cc1`, in data set [4], the IC50 is 1.8 µM.
Regarding `CCOC(=O)N1CCC(c2c(C)nc3c(OCc4ccccc4C)cccn23)CC1`, the IC50 in data set [4] was determined as 1.3 µM.
The same measure, in the same setting: then `Cc1ccccc1COc1cccn2c(-c3ccncc3)c(C)nc12`, with 7.1 µM.
`CCN1Cc2cc(-c3c(C)nc4c(OCc5ccccc5C)cccn34)ccc2C1=O.Cl` registered a Kp at 1 h in data set [10] of 0.72. Further, in [3], the microsomal CLint at 0.2 µM came out at 611 µL/min/mg. In data set [11], this compound returned a concentration at 3 h of 960 nM. For the same compound, the Drug uptake in data set [12] turned out to be 1.9 nmol/g; in data set [14] it was 0.69 nmol/g. In data set [13], this compound gave a Kp at 3 h of 0.72. Further, the IC50 in data set [4] amounted to 0.39 µM. Further, the results for the activity at 20 min, 5 µM in [1] and in [2] were 85% and 87%, respectively. Further, the concentration at 1 h in [15] amounted to 2500 nM.
Consider `CCN(C)C(=O)c1ccc(-c2c(C)nc3c(OCc4ccccc4C)cccn23)cc1`, for which the IC50 in [4] is above 10 µM.
